# System: MV-4-11 cells
# Test: Gene expression microarray analysis (Affymetrix PrimeView) and GSEA
# Assay type: cell-based, human
# Parameters: RFU PODN (11730768_x_at) / Fold change /veh PODN (11730768_x_at) / RFU LINC00158 (11744669_a_at) / Fold change /veh LINC00158 (11744669_a_at) / RFU DUSP10 (11751237_a_at) / Fold change /veh DUSP10 (11751237_a_at) / RFU ID3 (11757404_x_at) / Fold change /veh ID3 (11757404_x_at) / RFU PLEKHG5 (11737974_s_at) / Fold change /veh PLEKHG5 (11737974_s_at) / RFU LRRC4B (11730491_at) / Fold change /veh LRRC4B (11730491_at) / RFU GIMAP4 (11747438_a_at) / Fold change /veh GIMAP4 (11747438_a_at) / RFU KRT8 (11758183_x_at) / Fold change /veh KRT8 (11758183_x_at) / RFU CNN1 (11734310_a_at) / Fold change /veh CNN1 (11734310_a_at) / RFU VPS37D (11726825_at) / Fold change /veh VPS37D (11726825_at) / RFU C10orf10 (11716522_x_at) / Fold change /veh C10orf10 (11716522_x_at) / RFU KIR2DL2 /// KIR2DL4 /// KIR2DL5A /// KIR2DL5B /// KIR2DS1 /// KIR2DS2 /// KIR2DS3 /// KIR2DS4 /// KIR3DL3 /// KIR3DL3 /// KIR3DS1 (11738374_at) / Fold change /veh KIR2DL2 /// KIR2DL4 /// KIR2DL5A /// KIR2DL5B /// KIR2DS1 /// KIR2DS2 /// KIR2DS3 /// KIR2DS4 /// KIR3DL3 /// KIR3DL3 /// KIR3DS1 (11738374_at) / RFU C1QL1 (11718748_at) / Fold change /veh C1QL1 (11718748_at) / RFU TMPRSS4 (11747572_a_at) / Fold change /veh TMPRSS4 (11747572_a_at) / RFU HAMP (11756126_x_at) / Fold change /veh HAMP (11756126_x_at) / RFU RNFT2 (11725882_a_at) / Fold change /veh RNFT2 (11725882_a_at) / RFU NR4A2 (11747474_a_at) / Fold change /veh NR4A2 (11747474_a_at) / RFU ABCC12 (11746883_a_at) / Fold change /veh ABCC12 (11746883_a_at) / RFU TMEM136 (11760407_x_at) / Fold change /veh TMEM136 (11760407_x_at) / RFU CLDN22 /// WWC2 (11732394_at) / Fold change /veh CLDN22 /// WWC2 (11732394_at) / RFU HLA-DPB1 (11760878_x_at) / Fold change /veh HLA-DPB1 (11760878_x_at) / RFU SPINT1 (11716480_a_at) / Fold change /veh SPINT1 (11716480_a_at) / RFU GAP43 (11754022_s_at) / Fold change /veh GAP43 (11754022_s_at) / RFU A4GNT (11735810_at) / Fold change /veh A4GNT (11735810_at) / RFU PRB3 (11715151_x_at) / Fold change /veh PRB3 (11715151_x_at) / RFU TUBB4B (11761932_at) / Fold change /veh TUBB4B (11761932_at) / RFU CAPN14 (11732068_a_at) / Fold change /veh CAPN14 (11732068_a_at) / RFU TMCC2 (11721928_a_at) / Fold change /veh TMCC2 (11721928_a_at) / RFU IRGQ (11745062_a_at) / Fold change /veh IRGQ (11745062_a_at) / RFU FAM174B (11720279_a_at) / Fold change /veh FAM174B (11720279_a_at) / RFU TMPRSS4 (11748680_a_at) / Fold change /veh TMPRSS4 (11748680_a_at) / RFU FAM212B (11763350_a_at) / Fold change /veh FAM212B (11763350_a_at) / RFU PLEKHG5 (11743358_a_at) / Fold change /veh PLEKHG5 (11743358_a_at) / RFU ZSCAN30 (11745921_a_at) / Fold change /veh ZSCAN30 (11745921_a_at) / RFU CMKLR1 (11741424_a_at) / Fold change /veh CMKLR1 (11741424_a_at) / RFU LOC101060620 /// MAPK8IP1 (11723275_at) / Fold change /veh LOC101060620 /// MAPK8IP1 (11723275_at) / RFU SPTSSB (11747773_x_at) / Fold change /veh SPTSSB (11747773_x_at) / RFU PRSS12 (11739890_at) / Fold change /veh PRSS12 (11739890_at) / RFU BIN1 (11741810_x_at) / Fold change /veh BIN1 (11741810_x_at) / RFU WNT11 (11732464_a_at) / Fold change /veh WNT11 (11732464_a_at) / RFU C10orf10 (11716521_a_at) / Fold change /veh C10orf10 (11716521_a_at) / RFU C5orf56 (11738089_at) / Fold change /veh C5orf56 (11738089_at) / RFU CYB561 (11721691_x_at) / Fold change /veh CYB561 (11721691_x_at) / RFU ANKRD19P (11752326_a_at) / Fold change /veh ANKRD19P (11752326_a_at) / RFU OR2T12 /// OR2T33 /// OR2T8 (11738714_s_at) / Fold change /veh OR2T12 /// OR2T33 /// OR2T8 (11738714_s_at) / RFU VCAN (11748164_a_at) / Fold change /veh VCAN (11748164_a_at) / RFU JSRP1 (11732532_at) / Fold change /veh JSRP1 (11732532_at) / RFU KRTAP10-11 (11738290_x_at) / Fold change /veh KRTAP10-11 (11738290_x_at) / RFU MYO3A (11730013_a_at) / Fold change /veh MYO3A (11730013_a_at) / RFU EBF3 (11725865_a_at) / Fold change /veh EBF3 (11725865_a_at) / RFU CAMK2N1 (11719241_x_at) / Fold change /veh CAMK2N1 (11719241_x_at) / RFU C5orf56 (11738088_a_at) / Fold change /veh C5orf56 (11738088_a_at) / RFU OLFML3 (11715873_a_at) / Fold change /veh OLFML3 (11715873_a_at) / RFU LOC100653217 /// NTM (11731650_a_at) / Fold change /veh LOC100653217 /// NTM (11731650_a_at) / RFU MAPK11 (11762145_a_at) / Fold change /veh MAPK11 (11762145_a_at) / RFU FIZ1 (11724087_x_at) / Fold change /veh FIZ1 (11724087_x_at) / RFU OASL (11726364_x_at) / Fold change /veh OASL (11726364_x_at) / RFU SOX15 (11748057_x_at) / Fold change /veh SOX15 (11748057_x_at) / RFU CD79A (11719716_a_at) / Fold change /veh CD79A (11719716_a_at) / RFU HIST1H1D (11736915_at) / Fold change /veh HIST1H1D (11736915_at) / RFU CASKIN2 (11723855_a_at) / Fold change /veh CASKIN2 (11723855_a_at) / RFU LOC730098 (11760151_x_at) / Fold change /veh LOC730098 (11760151_x_at) / RFU OR4N2 (11742367_at) / Fold change /veh OR4N2 (11742367_at) / RFU PRRT2 (11749266_a_at) / Fold change /veh PRRT2 (11749266_a_at) / RFU SNX32 (11753110_a_at) / Fold change /veh SNX32 (11753110_a_at) / RFU CDHR5 (11726645_a_at) / Fold change /veh CDHR5 (11726645_a_at) / RFU RCAN1 (11760418_a_at) / Fold change /veh RCAN1 (11760418_a_at) / RFU FAM167A (11723789_a_at) / Fold change /veh FAM167A (11723789_a_at) / RFU FAM26E (11764081_at) / Fold change /veh FAM26E (11764081_at) / RFU ISYNA1 (11749810_s_at) / Fold change /veh ISYNA1 (11749810_s_at) / RFU ACY1 (11761880_at) / Fold change /veh ACY1 (11761880_at) / RFU 11764098_at / Fold change /veh 11764098_at / RFU SAMD14 (11745864_x_at) / Fold change /veh SAMD14 (11745864_x_at) / RFU NPB (11741838_a_at) / Fold change /veh NPB (11741838_a_at) / RFU TMPRSS6 (11731388_a_at) / Fold change /veh TMPRSS6 (11731388_a_at) / RFU KRTAP10-2 (11738614_at) / Fold change /veh KRTAP10-2 (11738614_at) / RFU ARHGAP8 /// PRR5-ARHGAP8 (11727945_x_at) / Fold change /veh ARHGAP8 /// PRR5-ARHGAP8 (11727945_x_at) / RFU KRTAP5-7 /// NADSYN1 (11734609_at) / Fold change /veh KRTAP5-7 /// NADSYN1 (11734609_at) / RFU RASL12 (11751679_a_at) / Fold change /veh RASL12 (11751679_a_at) / RFU CDKN2B (11736163_a_at) / Fold change /veh CDKN2B (11736163_a_at) / RFU PRF1 (11729649_at) / Fold change /veh PRF1 (11729649_at) / RFU, ZNF638 /// ZNF638-IT1 / Fold change vs veh, ZNF638 /// ZNF638-IT1 / RFU, PANK3 / Fold change vs veh, PANK3 / RFU, SH3YL1 / Fold change vs veh, SH3YL1 / RFU, ZEB2 / Fold change vs veh, ZEB2 / RFU, NRIP1 / Fold change vs veh, NRIP1 / RFU, PTTG1IP / Fold change vs veh, PTTG1IP / RFU, CAPN2 / Fold change vs veh, CAPN2 / RFU, MED14 / Fold change vs veh, MED14 / RFU, SNORA58 / Fold change vs veh, SNORA58 / RFU, C1orf63 / Fold change vs veh, C1orf63 / RFU, LRRFIP1 / Fold change vs veh, LRRFIP1 / RFU, NDUFAF7 / Fold change vs veh, NDUFAF7 / RFU, SLC12A2 / Fold change vs veh, SLC12A2 / RFU, IBTK / Fold change vs veh, IBTK / RFU, ESF1 / Fold change vs veh, ESF1 / Fold change vs veh, TMEM50B / RFU, TAOK1 / Fold change vs veh, TAOK1 / RFU, ACBD3 / Fold change vs veh, ACBD3 / RFU, TMA16 / Fold change vs veh, TMA16 / RFU, RWDD3 / Fold change vs veh, RWDD3 / RFU, BCAT1 / Fold change vs veh, BCAT1 / RFU, EDEM3 / Fold change vs veh, EDEM3 / RFU, TMEM33 / Fold change vs veh, TMEM33 / RFU, WDR75 / Fold change vs veh, WDR75 / RFU, AHCTF1 / Fold change vs veh, AHCTF1 / RFU, TFRC / Fold change vs veh, TFRC / RFU, ZDHHC17 / Fold change vs veh, ZDHHC17 / RFU, NOM1 / Fold change vs veh, NOM1 / RFU, ARL8B / Fold change vs veh, ARL8B / RFU, ZBTB11 / Fold change vs veh, ZBTB11 / RFU, TAMM41 / Fold change vs veh, TAMM41 / RFU, KIAA1704 /// LOC100996395 / Fold change vs veh, KIAA1704 /// LOC100996395 / RFU, ING1 / Fold change vs veh, ING1 / RFU, TRMT61B / Fold change vs veh, TRMT61B / RFU, FUBP3 / Fold change vs veh, FUBP3 / RFU, TP53 / Fold change vs veh, TP53 / RFU, TNKS2 / Fold change vs veh, TNKS2 / RFU, ZFP14 / Fold change vs veh, ZFP14 / RFU, ACTR2 / Fold change vs veh, ACTR2 / RFU, PPP3R1 / Fold change vs veh, PPP3R1 / RFU, PIK3R1 / Fold change vs veh, PIK3R1 / RFU, HNRNPA1 / Fold change vs veh, HNRNPA1 / RFU, RNF170 / Fold change vs veh, RNF170 / RFU, ZNF28 / Fold change vs veh, ZNF28 / RFU, RNGTT / Fold change vs veh, RNGTT / RFU, OGT / Fold change vs veh, OGT / RFU, BRD1 / Fold change vs veh, BRD1 / RFU, MARS / Fold change vs veh, MARS / RFU, ZNF655 / Fold change vs veh, ZNF655 / RFU, FAHD1 / Fold change vs veh, FAHD1 / RFU, BDP1 / Fold change vs veh, BDP1 / RFU, LRRCC1 / Fold change vs veh, LRRCC1 / RFU, ARID1A / Fold change vs veh, ARID1A / RFU, ZNF146 / Fold change vs veh, ZNF146 / RFU, ZNF330 / Fold change vs veh, ZNF330 / RFU, GPN3 / Fold change vs veh, GPN3 / RFU, C9orf123 / Fold change vs veh, C9orf123 / RFU, N4BP2L2 / Fold change vs veh, N4BP2L2 / RFU, ARFIP1 / Fold change vs veh, ARFIP1 / RFU, FAM179B / Fold change vs veh, FAM179B / RFU, BCL10 / Fold change vs veh, BCL10 / RFU, UHRF1BP1L / Fold change vs veh, UHRF1BP1L / RFU, BET1 / Fold change vs veh, BET1 / RFU, CNOT2 / Fold change vs veh, CNOT2 / RFU, ZNF268 / Fold change vs veh, ZNF268 / Fold change vs veh, ZNF507 / RFU, DGCR2 / Fold change vs veh, DGCR2 / RFU, WDSUB1 / Fold change vs veh, WDSUB1 / Fold change vs veh, HSP90B1 /// MIR3652 / RFU, ADSS / Fold change vs veh, ADSS / RFU, GK / Fold change vs veh, GK / RFU, ZNF148 / Fold change vs veh, ZNF148 / RFU, TAF9 / Fold change vs veh, TAF9 / RFU, SLC1A5 / Fold change vs veh, SLC1A5 / RFU, SLMO2 / Fold change vs veh, SLMO2 / RFU, ABCC4 / Fold change vs veh, ABCC4 / RFU, LOC101060439 /// RAP1B / Fold change vs veh, LOC101060439 /// RAP1B / RFU, RFX7 / Fold change vs veh, RFX7 / RFU, GTPBP10 / Fold change vs veh, GTPBP10 / RFU, CNEP1R1 / Fold change vs veh, CNEP1R1 / RFU, BIVM-ERCC5 /// ERCC5 / Fold change vs veh, BIVM-ERCC5 /// ERCC5 / RFU, ILF3 / Fold change vs veh, ILF3 / RFU 11762660_at / Fold change /veh 11762660_at / RFU VCAN (11757783_s_at) / Fold change /veh VCAN (11757783_s_at) / RFU DDX43 (11728927_at) / Fold change /veh DDX43 (11728927_at) / RFU KRT8 (11758188_x_at) / Fold change /veh KRT8 (11758188_x_at) / RFU NKD1 (11759106_at) / Fold change /veh NKD1 (11759106_at) / RFU SRD5A1 (11742802_a_at) / Fold change /veh SRD5A1 (11742802_a_at) / RFU TPSAB1 /// TPSB2 (11721975_s_at) / Fold change /veh TPSAB1 /// TPSB2 (11721975_s_at) / RFU GSTM3 (11746129_a_at) / Fold change /veh GSTM3 (11746129_a_at) / RFU IL23R (11737362_x_at) / Fold change /veh IL23R (11737362_x_at) / RFU TMEM51 (11727254_a_at) / Fold change /veh TMEM51 (11727254_a_at) / RFU PIWIL2 (11732686_x_at) / Fold change /veh PIWIL2 (11732686_x_at) / RFU ORM1 (11744905_x_at) / Fold change /veh ORM1 (11744905_x_at) / RFU CCDC152 (11743942_at) / Fold change /veh CCDC152 (11743942_at) / RFU ECM1 (11717891_a_at) / Fold change /veh ECM1 (11717891_a_at) / RFU IL23R (11748794_a_at) / Fold change /veh IL23R (11748794_a_at) / RFU TNFAIP8L3 (11732012_x_at) / Fold change /veh TNFAIP8L3 (11732012_x_at) / RFU MBOAT4 (11741988_at) / Fold change /veh MBOAT4 (11741988_at) / RFU 11764193_at / Fold change /veh 11764193_at / RFU TMEM53 (11763286_at) / Fold change /veh TMEM53 (11763286_at) / RFU MAGEB2 (11727129_at) / Fold change /veh MAGEB2 (11727129_at) / RFU TMEM200A (11744735_a_at) / Fold change /veh TMEM200A (11744735_a_at) / RFU CCDC152 (11751479_a_at) / Fold change /veh CCDC152 (11751479_a_at) / RFU FAM211A (11726209_a_at) / Fold change /veh FAM211A (11726209_a_at) / RFU RGS16 (11746705_a_at) / Fold change /veh RGS16 (11746705_a_at) / RFU VCAN (11755009_s_at) / Fold change /veh VCAN (11755009_s_at) / RFU RHOB (11743442_s_at) / Fold change /veh RHOB (11743442_s_at) / RFU RGS16 (11720943_a_at) / Fold change /veh RGS16 (11720943_a_at) / RFU RGS16 (11720944_at) / Fold change /veh RGS16 (11720944_at) / RFU, VPS4B / Fold change vs veh, VPS4B / RFU, CREB1 / Fold change vs veh, CREB1 / RFU, DNAJC13 / Fold change vs veh, DNAJC13 / RFU, GNAQ / Fold change vs veh, GNAQ / RFU, CDK5R1 / Fold change vs veh, CDK5R1 / RFU, ZRANB3 / Fold change vs veh, ZRANB3 / RFU, CUL4A / Fold change vs veh, CUL4A / RFU, CCNY / Fold change vs veh, CCNY / RFU, UFL1 / Fold change vs veh, UFL1 / RFU, COG3 / Fold change vs veh, COG3 / RFU, DIAPH2 / Fold change vs veh, DIAPH2 / RFU, SKA2 / Fold change vs veh, SKA2 / RFU, AFF3 / Fold change vs veh, AFF3 / RFU, LMF1 / Fold change vs veh, LMF1 / RFU, IPO11 / Fold change vs veh, IPO11 / RFU, DFFB / Fold change vs veh, DFFB / RFU, FOXP1 / Fold change vs veh, FOXP1 / RFU, CARD8 / Fold change vs veh, CARD8 / RFU, STRN3 / Fold change vs veh, STRN3 / RFU, ADK / Fold change vs veh, ADK / RFU, RASSF2 / Fold change vs veh, RASSF2 / RFU, WIPF1 / Fold change vs veh, WIPF1 / RFU, LARP1B / Fold change vs veh, LARP1B / RFU, RASA1 / Fold change vs veh, RASA1 / RFU, RB1 / Fold change vs veh, RB1 / RFU, PPFIA1 / Fold change vs veh, PPFIA1 / RFU, MAT2A / Fold change vs veh, MAT2A / RFU, CCT5 / Fold change vs veh, CCT5 / RFU, WDR92 / Fold change vs veh, WDR92 / RFU, CUX1 / Fold change vs veh, CUX1 / RFU, TTC7A / Fold change vs veh, TTC7A / RFU, TMEM135 / Fold change vs veh, TMEM135 / RFU, DEPTOR / Fold change vs veh, DEPTOR / RFU, CPM / Fold change vs veh, CPM / RFU, DNAJB6 / Fold change vs veh, DNAJB6 / RFU, CACNA2D3 / Fold change vs veh, CACNA2D3 / RFU, DTX4 / Fold change vs veh, DTX4 / RFU, TFCP2 / Fold change vs veh, TFCP2 / RFU, GMCL1 /// GMCL1P1 / Fold change vs veh, GMCL1 /// GMCL1P1 / RFU, AEBP2 / Fold change vs veh, AEBP2 / RFU, SNHG1 /// SNORD22 /// SNORD25 /// SNORD26 /// SNORD27 /// SNORD28 /// SNORD29 /// SNORD31 / Fold change vs veh, SNHG1 /// SNORD22 /// SNORD25 /// SNORD26 /// SNORD27 /// SNORD28 /// SNORD29 /// SNORD31 / Fold change (Aza/veh), C12orf56 (ProbeSet 11735607_a_at) / Fold change (ACY-1035/veh), C12orf56 (ProbeSet 11735607_a_at) / Fold change (Aza/veh), FGFR1OP (ProbeSet 11751329_s_at) / Fold change (ACY-1035/veh), FGFR1OP (ProbeSet 11751329_s_at) / Fold change (Aza/veh), VPS36 (ProbeSet 11739960_a_at) / Fold change (ACY-1035/veh), VPS36 (ProbeSet 11739960_a_at) / RFU SYPL1 (11715823_x_at) / Fold change /veh SYPL1 (11715823_x_at) / RFU IGFBP7 (11715501_s_at) / Fold change /veh IGFBP7 (11715501_s_at) / RFU REEP3 (11722064_at) / Fold change /veh REEP3 (11722064_at) / RFU IGLL1 (11728026_x_at) / Fold change /veh IGLL1 (11728026_x_at): dose or concentration left out as unconfirmed
# Conditions: MV-4-11 cells, 48 hours
compound,measurement,value
Nc1ccc(-c2cccs2)cc1NC(=O)c1ccc2c(c1)cc(C1CC1)n2CCN1CCOCC1 [ACY-1035],Fold change /veh FAM174B (11720279_a_at),1.09
